Measured values reported in paper PMC8284461, “Piperidine-4-Carboxamides Target DNA Gyrase in Mycobacterium abscessus” (Antimicrobial Agents and Chemotherapy, 2021).
≈ marks a conversion by molar mass, not a printed value.

Tests used:
[1] = test system: M. abscessus subsp. abscessus ATCC 19977; assay: MIC, broth microdilution; type: cell-based, Mycobacterium abscessus; conditions: abscessus ATCC 19977 wild type, 90% growth inhibition, 3 days
Method: (§1) MIC was determined using the broth microdilution method in 96-well plates as described previously ([47]). Briefly, a 10-point 2-fold serial dilution of compounds was performed in 96-well plates (Costar 3370; Corning, USA) starting at twice the desired highest concentration. […] One hundred microliters of the bacterial suspension was seeded onto the 96-well plates containing 100 μl of the serially diluted compounds to give a final volume of 200 μl in each well with the final OD600 of 0.005. The plates were sealed with parafilm, placed onto wet paper towels in a lock-lock box and incubated for 3 days at 37°C with orbital shaking at 90 rpm. […] Absorbance values at day 3 were subtracted from the day 0 readout. Percent growth inhibition was calculated by dividing the absolute absorbance value of treated cells with untreated control and multiplying by 100. CLR was included in all MIC experiments as a positive control to monitor assay reproducibility. MIC was defined as 90% of growth inhibition relative to untreated controls.

[2] = test system: M. abscessus subsp. abscessus Bamboo; assay: MIC, broth microdilution; type: cell-based, Mycobacterium abscessus; conditions: abscessus Bamboo wild type, 90% growth inhibition, 3 days
Method: as §1

[3] = test system: M. abscessus subsp. abscessus K21; assay: MIC, broth microdilution; type: cell-based, Mycobacterium abscessus; conditions: Mycobacteroides abscessus, 72 h, 90% growth inhibition, 3 days
Method: as §1

[4] = test system: M. abscessus subsp. abscessus M199; assay: MIC, broth microdilution; type: cell-based, Mycobacterium abscessus; conditions: Mycobacteroides abscessus, 72 h, 90% growth inhibition, 3 days
Method: as §1

[5] = test system: M. abscessus subsp. abscessus M337; assay: MIC, broth microdilution; type: cell-based, Mycobacterium abscessus; conditions: Mycobacteroides abscessus, 72 h, 90% growth inhibition, 3 days
Method: as §1

[6] = test system: M. abscessus subsp. abscessus M404; assay: MIC, broth microdilution; type: cell-based, Mycobacterium abscessus; conditions: Mycobacteroides abscessus, 72 h, 90% growth inhibition, 3 days
Method: as §1

[7] = test system: M. abscessus subsp. abscessus M421; assay: MIC, broth microdilution; type: cell-based, Mycobacterium abscessus; conditions: Mycobacteroides abscessus, 72 h, 90% growth inhibition, 3 days
Method: as §1

[8] = test system: M. abscessus subsp. abscessus M9; assay: MIC, broth microdilution; type: cell-based, Mycobacterium abscessus; conditions: Mycobacteroides abscessus, 72 h, 90% growth inhibition, 3 days
Method: as §1

[9] = test system: M. abscessus subsp. bolletii CCUG 50184T; assay: MIC, broth microdilution; type: cell-based, Mycobacterium abscessus; conditions: Mycobacteroides abscessus, 72 h, 90% growth inhibition, 3 days
Method: as §1

[10] = test system: M. abscessus subsp. bolletii M232; assay: MIC, broth microdilution; type: cell-based, Mycobacterium abscessus; conditions: Mycobacteroides abscessus, 72 h, 90% growth inhibition, 3 days
Method: as §1

[11] = test system: M. abscessus subsp. bolletii M506; assay: MIC, broth microdilution; type: cell-based, Mycobacterium abscessus; conditions: Mycobacteroides abscessus, 72 h, 90% growth inhibition, 3 days
Method: as §1

[12] = test system: M. abscessus subsp. massiliense CCUG 48898T; assay: MIC, broth microdilution; type: cell-based, Mycobacterium abscessus; conditions: Mycobacteroides abscessus, 72 h, 90% growth inhibition, 3 days
Method: as §1

[13] = test system: M. abscessus subsp. massiliense M111; assay: MIC, broth microdilution; type: cell-based, Mycobacterium abscessus; conditions: Mycobacteroides abscessus, 72 h, 90% growth inhibition, 3 days
Method: as §1

[14] = test system: M. abscessus subsp. abscessus Bamboo 844^r-2 (GyrA D91N); assay: MIC, resistant mutant; type: cell-based, Mycobacterium abscessus; conditions: Mycobacteroides abscessus
[15] = test system: M. abscessus subsp. abscessus Bamboo 844^r-3 (GyrB S473W); assay: MIC, resistant mutant; type: cell-based, Mycobacterium abscessus; conditions: Mycobacteroides abscessus
[16] = test system: M. abscessus subsp. abscessus ATCC 19977 844-TMF^r-4 (GyrB M474I); assay: MIC, resistant mutant; type: cell-based, Mycobacterium abscessus; conditions: Mycobacteroides abscessus, ATCC19977
[17] = test system: M. abscessus subsp. abscessus ATCC 19977 MXF^r-1 (GyrA D96Y); assay: MIC, resistant mutant; type: cell-based, Mycobacterium abscessus; conditions: Mycobacteroides abscessus, ATCC19977
[18] = test system: M. abscessus subsp. abscessus ATCC 19977 MXF^r-2 (GyrA D96N); assay: MIC, resistant mutant; type: cell-based, Mycobacterium abscessus; conditions: Mycobacteroides abscessus, ATCC19977
[19] = test system: M. abscessus subsp. abscessus ATCC 19977 MXF^r-3 (GyrA D96G); assay: MIC, resistant mutant; type: cell-based, Mycobacterium abscessus; conditions: Mycobacteroides abscessus, ATCC19977
[20] = biological target: recombinant M. abscessus wild-type DNA gyrase (Mycobacteroides abscessus, UniProt B1ME45+B1ME58); assay: biochemical; design: species or system Mycobacterium abscessus; conditions: wild-type DNA gyrase, up to 50 μM
recombinant M. abscessus wild-type DNA gyrase, sequence (B1ME58 entry or part of it): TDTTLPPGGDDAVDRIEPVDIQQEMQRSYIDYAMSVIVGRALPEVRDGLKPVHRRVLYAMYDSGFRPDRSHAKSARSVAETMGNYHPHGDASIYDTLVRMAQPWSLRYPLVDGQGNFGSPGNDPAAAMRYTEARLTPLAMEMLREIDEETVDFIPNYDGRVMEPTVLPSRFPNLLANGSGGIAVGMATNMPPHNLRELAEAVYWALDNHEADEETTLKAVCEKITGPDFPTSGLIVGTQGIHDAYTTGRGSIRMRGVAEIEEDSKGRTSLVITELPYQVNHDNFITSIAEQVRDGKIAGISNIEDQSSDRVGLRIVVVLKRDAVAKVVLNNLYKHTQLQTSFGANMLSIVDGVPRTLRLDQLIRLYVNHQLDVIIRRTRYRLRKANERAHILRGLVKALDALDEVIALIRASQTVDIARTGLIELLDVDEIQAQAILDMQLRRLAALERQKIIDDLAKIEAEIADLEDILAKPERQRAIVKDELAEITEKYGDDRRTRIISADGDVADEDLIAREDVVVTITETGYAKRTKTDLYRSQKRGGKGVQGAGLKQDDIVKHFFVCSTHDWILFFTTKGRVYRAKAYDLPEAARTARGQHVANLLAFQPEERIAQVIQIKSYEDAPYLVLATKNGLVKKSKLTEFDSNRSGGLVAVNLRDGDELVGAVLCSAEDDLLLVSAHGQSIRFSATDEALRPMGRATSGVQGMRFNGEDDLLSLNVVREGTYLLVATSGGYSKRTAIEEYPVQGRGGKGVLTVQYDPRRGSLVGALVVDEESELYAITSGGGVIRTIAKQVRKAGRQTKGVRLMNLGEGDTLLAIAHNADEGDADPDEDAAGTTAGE
recombinant M. abscessus wild-type DNA gyrase, sequence (B1ME45 entry or part of it): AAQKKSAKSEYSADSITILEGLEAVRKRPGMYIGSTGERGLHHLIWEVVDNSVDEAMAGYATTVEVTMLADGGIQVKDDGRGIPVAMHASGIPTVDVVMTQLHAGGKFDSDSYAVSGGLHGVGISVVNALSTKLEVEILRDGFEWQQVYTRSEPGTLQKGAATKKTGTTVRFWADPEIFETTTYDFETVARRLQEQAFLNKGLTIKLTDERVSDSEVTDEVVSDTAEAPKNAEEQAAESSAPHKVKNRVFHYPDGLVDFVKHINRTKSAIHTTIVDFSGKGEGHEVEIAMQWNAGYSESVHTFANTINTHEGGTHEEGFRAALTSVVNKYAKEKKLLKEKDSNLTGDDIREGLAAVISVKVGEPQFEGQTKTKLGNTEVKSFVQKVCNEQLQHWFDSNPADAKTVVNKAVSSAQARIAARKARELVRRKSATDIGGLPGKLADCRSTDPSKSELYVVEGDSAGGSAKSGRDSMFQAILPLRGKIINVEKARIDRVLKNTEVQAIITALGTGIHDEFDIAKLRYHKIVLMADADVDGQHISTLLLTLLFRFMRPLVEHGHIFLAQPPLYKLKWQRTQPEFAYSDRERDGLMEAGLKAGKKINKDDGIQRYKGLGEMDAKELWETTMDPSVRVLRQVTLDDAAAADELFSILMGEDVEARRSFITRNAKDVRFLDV

[21] = test system: M. abscessus subsp. abscessus ATCC 19977; design: method as in PMID 19171799; conditions: abscessus ATCC 19977, erm(41) T28; inducible resistance by sequevar; cited from earlier work
[22] = test system: M. abscessus subsp. bolletii CCUG 50184T; design: method as in PMID 19171799; conditions: erm(41) T28; cited from earlier work
[23] = test system: M. abscessus subsp. massiliense CCUG 48898T; design: method as in PMID 19171799; conditions: erm(41) deletion; cited from earlier work
[24] = test system: M. abscessus subsp. abscessus Bamboo; design: method as in PMID 19171799; conditions: erm(41) C28; cited from earlier work
[25] = test system: M. abscessus subsp. abscessus K21; design: method as in PMID 19171799; conditions: abscessus K21, erm(41) C28; cited from earlier work
[26] = test system: M. abscessus subsp. abscessus M9; design: method as in PMID 19171799; conditions: abscessus M9, erm(41) T28; cited from earlier work
[27] = test system: M. abscessus subsp. abscessus M199; design: method as in PMID 19171799; conditions: abscessus M199, erm(41) T28; cited from earlier work
[28] = test system: M. abscessus subsp. abscessus M337; design: method as in PMID 19171799; conditions: abscessus M337, erm(41) T28; cited from earlier work
[29] = test system: M. abscessus subsp. abscessus M404; design: method as in PMID 19171799; conditions: abscessus M404, erm(41) C28; cited from earlier work
[30] = test system: M. abscessus subsp. abscessus M421; design: method as in PMID 19171799; conditions: abscessus M421, erm(41) T28; cited from earlier work
[31] = test system: M. abscessus subsp. bolletii M232; design: method as in PMID 19171799; conditions: bolletii M232, erm(41) T28; cited from earlier work
[32] = test system: M. abscessus subsp. bolletii M506; design: method as in PMID 19171799; conditions: bolletii M506, erm(41) C28; cited from earlier work
[33] = test system: M. abscessus subsp. massiliense M111; design: method as in PMID 19171799; conditions: massiliense M111, erm(41) deletion; cited from earlier work
[34] = Mycobacteroides abscessus, ATCC19977, 72 h
[35] = Mycobacteroides abscessus, 72 h

Row | SMILES | MIC [1, 34] [µM] | MIC [2, 35] [µM] | MIC [3] [µM] | MIC [4] [µM] | MIC [5] [µM] | MIC [6] [µM] | MIC [7] [µM] | MIC [8] [µM] | MIC [9] [µM] | MIC [10] [µM] | MIC [11] [µM] | MIC [12] [µM] | MIC [13] [µM] | MIC [14] [µM] | MIC [15] [µM] | MIC [16] [µM] | MIC [17] [µM] | MIC [18] [µM] | MIC [19] [µM] | further results
1 | CC[C@H]1OC(=O)[C@H](C)[C@@H](O[C@H]2C[C@@](C)(OC)[C@@H](O)[C@H](C)O2)[C@H](C)[C@@H](O[C@@H]2O[C@H](C)C[C@H](N(C)C)[C@H]2O)[C@](C)(OC)C[C@@H](C)C(=O)[C@H](C)[C@@H](O)[C@]1(C)O [CLR, clarithromycin] | 2 (≈ 1.5 µg/mL) | 0.4 (≈ 0.299 µg/mL) | 0.6 (≈ 0.449 µg/mL) | 3.2 (≈ 2.39 µg/mL) | 3.2 (≈ 2.39 µg/mL) | 0.8 (≈ 0.598 µg/mL) | 3.2 (≈ 2.39 µg/mL) | 3.2 (≈ 2.39 µg/mL) | 1.2 (≈ 0.898 µg/mL) | 3.2 (≈ 2.39 µg/mL) | 0.8 (≈ 0.598 µg/mL) | 0.2 (≈ 0.15 µg/mL) | 0.2 (≈ 0.15 µg/mL) | 0.3 (≈ 0.224 µg/mL) | 0.4 (≈ 0.299 µg/mL) | 2 (≈ 1.5 µg/mL) | 2 (≈ 1.5 µg/mL) | 1 (≈ 0.748 µg/mL) | 1 (≈ 0.748 µg/mL) | MIC [1]: 2 µM (≈ 1.5 µg/mL); effect on supercoiling activity [20]: did not affect the activity of the enzyme; CLR susceptibility [21]: Resistant; CLR susceptibility [22]: Resistant; CLR susceptibility [23]: Sensitive; CLR susceptibility [24]: Sensitive; CLR susceptibility [25]: Sensitive; CLR susceptibility [26]: Resistant; CLR susceptibility [27]: Resistant; CLR susceptibility [28]: Resistant; CLR susceptibility [29]: Sensitive; CLR susceptibility [30]: Resistant; CLR susceptibility [31]: Resistant; CLR susceptibility [32]: Sensitive; CLR susceptibility [33]: Sensitive
2 | COc1c(N2C[C@@H]3CCCN[C@@H]3C2)c(F)cc2c(=O)c(C(=O)O)cn(C3CC3)c12 [MXF, moxifloxacin] | 3 (≈ 1.2 µg/mL) | 4 (≈ 1.61 µg/mL) | 3 (≈ 1.2 µg/mL) | 2.5 (≈ 1 µg/mL) | 1.5 (≈ 0.602 µg/mL) | 3 (≈ 1.2 µg/mL) | 1.5 (≈ 0.602 µg/mL) | 1.5 (≈ 0.602 µg/mL) | 6.3 (≈ 2.53 µg/mL) | 1.5 (≈ 0.602 µg/mL) | 2.5 (≈ 1 µg/mL) | 6.3 (≈ 2.53 µg/mL) | 3.2 (≈ 1.28 µg/mL) | 30 (≈ 12 µg/mL) | 2 (≈ 0.803 µg/mL) | 2 (≈ 0.803 µg/mL) | 100 (≈ 40.1 µg/mL) | 80 (≈ 32.1 µg/mL) | 80 (≈ 32.1 µg/mL) | MIC [2]: 4 µM (≈ 1.61 µg/mL)
